Experimental data published in ChEMBL document CHEMBL1135599, “Synthesis and evaluation of potent and selective beta(3) adrenergic receptor agonists containing acylsulfonamide, sulfonylsulfonamide, and sulfonylurea carboxylic acid isosteres” (J Med Chem, 2002).

Experiments:
[1] = target: T1, Beta-3 adrenergic receptor (Homo sapiens, UniProt P13945)
Target sequence in this assay (P13945 whole entry): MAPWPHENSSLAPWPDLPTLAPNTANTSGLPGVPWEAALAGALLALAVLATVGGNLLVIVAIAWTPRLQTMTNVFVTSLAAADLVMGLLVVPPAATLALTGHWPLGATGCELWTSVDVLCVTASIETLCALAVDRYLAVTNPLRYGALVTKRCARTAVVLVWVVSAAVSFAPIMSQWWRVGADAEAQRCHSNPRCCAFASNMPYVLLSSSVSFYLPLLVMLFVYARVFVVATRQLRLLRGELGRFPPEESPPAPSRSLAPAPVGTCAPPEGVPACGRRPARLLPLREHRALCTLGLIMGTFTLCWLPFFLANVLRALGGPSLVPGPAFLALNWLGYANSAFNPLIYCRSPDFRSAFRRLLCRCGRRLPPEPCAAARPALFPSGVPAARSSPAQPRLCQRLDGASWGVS

[2] = Selectivity ratio (Beta-2EC50/ Beta-3EC50); assay type: functional
[3] = target: T1, Beta-3 adrenergic receptor; experiment: (§1) concentration-response expressed as a percent of the maximal response to R-(-) isoproterenol (ISO).Emax is the fitted maximal value of the concentration; assay type: functional
Target sequence in this assay (P13945 whole entry, looked up): as the sequence (P13945 whole entry) above

[4] = target: T2, Beta-1 adrenergic receptor (Homo sapiens, UniProt P08588); experiment: as §1; assay type: functional
Target sequence in this assay (P08588 whole entry, looked up): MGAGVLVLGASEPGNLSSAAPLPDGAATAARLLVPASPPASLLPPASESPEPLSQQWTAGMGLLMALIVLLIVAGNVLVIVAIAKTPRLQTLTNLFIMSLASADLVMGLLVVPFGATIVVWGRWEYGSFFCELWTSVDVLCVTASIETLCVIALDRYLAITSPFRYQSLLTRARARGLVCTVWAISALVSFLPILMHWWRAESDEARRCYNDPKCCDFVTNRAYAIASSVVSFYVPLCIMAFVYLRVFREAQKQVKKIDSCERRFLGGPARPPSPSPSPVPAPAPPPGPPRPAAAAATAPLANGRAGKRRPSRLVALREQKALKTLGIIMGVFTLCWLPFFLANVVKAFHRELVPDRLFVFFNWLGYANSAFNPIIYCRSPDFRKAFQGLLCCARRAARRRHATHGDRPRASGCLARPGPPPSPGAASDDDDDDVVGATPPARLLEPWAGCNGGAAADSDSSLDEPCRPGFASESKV

[5] = target: T3, Beta-2 adrenergic receptor (Homo sapiens, UniProt P07550); experiment: concentration-response expressed as a percent of the maximal response to R-(-) isoprenaline (ISO).Emax is the fitted maximal value of the concentration; assay type: functional
Target sequence in this assay (P07550 whole entry, looked up): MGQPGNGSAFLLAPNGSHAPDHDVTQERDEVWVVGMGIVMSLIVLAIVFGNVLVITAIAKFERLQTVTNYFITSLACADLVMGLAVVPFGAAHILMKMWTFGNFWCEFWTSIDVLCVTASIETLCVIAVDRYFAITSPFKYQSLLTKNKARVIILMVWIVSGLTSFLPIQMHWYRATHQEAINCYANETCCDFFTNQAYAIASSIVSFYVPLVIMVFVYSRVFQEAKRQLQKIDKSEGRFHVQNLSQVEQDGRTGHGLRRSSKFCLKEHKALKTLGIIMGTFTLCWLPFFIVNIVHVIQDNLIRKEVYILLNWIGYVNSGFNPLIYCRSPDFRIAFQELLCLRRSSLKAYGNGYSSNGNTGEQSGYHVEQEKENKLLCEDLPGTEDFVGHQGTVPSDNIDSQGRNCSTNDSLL

[6] = target: T2, Beta-1 adrenergic receptor; experiment: Ability to cause cAMP accumulation in CHO cells expressing human beta-1 AR expressed as the negative logarithm of the molar drug concentration; assay type: functional, cell-based
Target sequence in this assay (P08588 whole entry): as the sequence (P08588 whole entry, looked up) above

[7] = target: T3, Beta-2 adrenergic receptor; experiment: Ability to cause cAMP accumulation in CHO cells expressing human beta-2 AR expressed as the negative logarithm of the molar drug concentration; assay type: functional, cell-based
Target sequence in this assay (P07550 whole entry): as the sequence (P07550 whole entry, looked up) above

[8] = target: T1, Beta-3 adrenergic receptor; experiment: Ability to cause cAMP accumulation in CHO cells expressing human beta-3 AR expressed as the negative logarithm of the molar drug concentration; assay type: functional, cell-based
Target sequence in this assay (P13945 whole entry): as the sequence (P13945 whole entry) above

[9] = target: T3, Beta-2 adrenergic receptor; experiment: as §1; assay type: functional
Target sequence in this assay (P07550 whole entry, looked up): as the sequence (P07550 whole entry, looked up) above

[10] = target: T2, Beta-1 adrenergic receptor; experiment: Concentration that causes 50% inhibition of human beta 1 adrenergic receptor (AR), expressed in CHO cells.; assay type: functional, cell-based
Target sequence in this assay (P08588 whole entry): as the sequence (P08588 whole entry, looked up) above

[11] = Half life (t1/2) value in dogs after an intravenous dose of 0.2 mg/Kg; assay type: ADME, organism-based, Canis lupus familiaris; conditions: dog, in vivo
[12] = target: T3, Beta-2 adrenergic receptor; experiment: Concentration that causes 50% inhibition of human beta 2 adrenergic receptor (AR), expressed in CHO cells.; assay type: functional, cell-based
Target sequence in this assay (P07550 whole entry): as the sequence (P07550 whole entry, looked up) above

[13] = Selectivity ratio (Beta-1EC50/ Beta-3EC50); assay type: functional
[14] = target: T3, Beta-2 adrenergic receptor; experiment: concentration-response expressed as a percent of the maximal response to R-(-) isoprenaline (ISO); assay type: functional
Target sequence in this assay (P07550 whole entry, looked up): as above

[15] = target: T3, Beta-2 adrenergic receptor; experiment: Activity against human beta 2 adrenergic receptor (AR), expressed in CHO cells; assay type: functional, cell-based
Target sequence in this assay (P07550 whole entry): as the sequence (P07550 whole entry, looked up) above

[16] = target: T1, Beta-3 adrenergic receptor; experiment: (§2) concentration-response expressed as a percent of the maximal response to R-(-) isoproterenol (ISO); assay type: functional
Target sequence in this assay (P13945 whole entry, looked up): as the sequence (P13945 whole entry) above

[17] = target: T2, Beta-1 adrenergic receptor; experiment: as §2; assay type: functional
Target sequence in this assay (P08588 whole entry, looked up): as the sequence (P08588 whole entry, looked up) above

[18] = plasma concentration at the 2.5 hour time; significant; assay type: ADME
[19] = target: T1, Beta-3 adrenergic receptor; experiment: Activity against human beta 3 adrenergic receptor (AR), expressed in CHO cells.; assay type: functional, cell-based
Target sequence in this assay (P13945 whole entry): as the sequence (P13945 whole entry) above

[20] = target: T2, Beta-1 adrenergic receptor; experiment: Receptor binding assay(Beta-1 adrenergic receptor) carried out with membranes prepared from human recombinant Sf9 cells expressing the cloned human receptor in the presence of [125I]iodocyanopindolol; assay type: cell membranes
Target sequence in this assay (P08588 whole entry): as the sequence (P08588 whole entry, looked up) above

[21] = Area under curve (AUC) value in dogs after an intravenous dose of 0.2 mg/Kg in 0.025 M aqueous methanesulfonic acid solution with 5% mannitol at a concentration of 0.2; assay type: ADME, organism-based, Canis lupus familiaris; conditions: dog, in vivo
[22] = plasma concentration at the 2.5 hour time; assay type: ADME; conditions: read-out: C
[23] = target: T3, Beta-2 adrenergic receptor; experiment: Receptor binding assay(Beta-2 adrenergic receptor) carried out with membranes prepared from human recombinant Sf9 cells expressing the cloned human receptor in the presence of [125I]iodocyanopindolol; assay type: cell membranes
Target sequence in this assay (P07550 whole entry): as the sequence (P07550 whole entry, looked up) above

[24] = test system: Canis familiaris; experiment: Plasma clearance in dogs after an intravenous dose of 0.2 mg/Kg; assay type: ADME, organism-based, Canis lupus familiaris; conditions: dog, in vivo
[25] = Volume distribution in dogs after an intravenous dose of 0.2 mg/Kg; assay type: ADME, organism-based; conditions: dog, in vivo
[26] = Area under curve (AUC) value in dogs after an intravenous dose of 0.2 mg/Kg in 0.025 M aqueous methanesulfonic acid solution with 5% mannitol; assay type: ADME; conditions: dog, in vivo

Row | SMILES | EC50 [1] | Ratio [2] | Emax [3] | Emax [4] | EC50 [6] | EC50 [7] | Emax [9] | Ratio [13] | other results
1 | C[C@H](CNc1cccc(CC(=O)O)c1)NC[C@H](O)c1cccc(Cl)c1 | 0.316 µM | 0.2 | 117% | 6% | > 10 µM | 0.0501 µM |  |  | Emax [5]: 80%
2 | C[C@H](Cc1ccc(OCC(=O)O)cc1)NC[C@H](O)c1cccc(Cl)c1 |  |  |  | 28% |  |  |  |  | Emax [5]: 80%
3 | C[C@H](CNc1cccc(CNC(=O)NS(=O)(=O)c2ccccc2)c1)NC[C@H](O)c1cccc(Cl)c1 |  | 16 | 105% | 15% |  |  | 23% | 25 | EC50 [8]: 0.0158 µM; EC50 [10]: 0.398 µM; half-life [11]: < 1 h; EC50 [12]: 0.251 µM
4 | C[C@H](CNc1ccccc1)NC[C@H](O)c1cccc(Cl)c1 | 0.02 µM | 0.5 | 105% | 27% | 0.00501 µM | 0.01 µM | 100% | 0.3 | 
5 | C[C@H](CNc1ccc(CC(=O)NS(=O)(=O)c2ccccc2)cc1)NC[C@H](O)c1cccc(Cl)c1 | 0.000794 µM | 40 | 110% | 22% | 0.794 µM | 0.0316 µM | 59% | 1000 | 
6 | C[C@H](CNc1ccc(CC(=O)Nc2nccs2)cc1)NC[C@H](O)c1cccc(Cl)c1 | 0.00126 µM | 6.3 | 101% | 14% | 0.00316 µM | 0.00794 µM | 31% | 2.5 | 
7 | C[C@H](CNc1ccc(C(=O)O)cc1)NC[C@H](O)c1cccc(Cl)c1 | 0.794 µM | 4 | 79% | 17% | 0.631 µM | 3.16 µM | 70% | 0.8 | 
8 | C[C@H](CNc1ccc(CCC(=O)O)cc1)NC[C@H](O)c1cccc(Cl)c1 | 0.0251 µM | 16 | 104% | 10% | 0.251 µM | 0.398 µM | 22% | 10 | 
9 | C[C@H](CNc1cccc(CCS(=O)(=O)NS(=O)(=O)c2ccccc2)c1)NC[C@H](O)c1cccc(Cl)c1 |  | 630 |  |  |  |  |  | > 500 | Emax [14]: 31%; EC50 [15]: 1 µM; half-life [11]: < 1 h; Emax [16]: 113%; Emax [17]: 21%; C [18]: Not Active; EC50 [19]: 0.00158 µM
10 | C[C@H](CNc1ccc(CC(=O)NS(C)(=O)=O)cc1)NC[C@H](O)c1cccc(Cl)c1 | 0.00501 µM | 4 | 96% | 30% | 0.1 µM | 0.02 µM | 78% | 20 | 
11 | Cc1ccc(S(=O)(=O)NC(=O)Cc2ccc(NC[C@@H](C)NC[C@H](O)c3cccc(Cl)c3)cc2)cc1 | 0.00126 µM | 63 | 98% | 23% | 0.631 µM | 0.0794 µM | 34% | 501 | IC50 [20]: 2 µM; half-life [11]: 1 h; AUC [21]: 715 ng·h/mL; concentration at 2.5 h [22]: 42.1 ng/mL; IC50 [23]: 5.01 µM; Clp [24]: 4.7 mL/min/kg; Vd [25]: 0.2 L/kg
12 | CC(=O)NCc1ccc(NC[C@@H](C)NC[C@H](O)c2cccc(Cl)c2)cc1 | 0.0126 µM | 0.3 | 123% | 15% | 0.00794 µM | 0.00316 µM | 75% | 0.6 | 
13 | C[C@H](CNc1ccc(CC(=O)O)cc1)NC[C@H](O)c1cccc(Cl)c1 | 0.0158 µM | 3.1 |  |  | 0.0794 µM | 0.0501 µM |  | 5 | Emax [5]: 90%; IC50 [20]: 1 µM; IC50 [23]: 0.794 µM
14 | Cc1ccc(S(=O)(=O)NCCc2ccc(NC[C@@H](C)NC[C@H](O)c3cccc(Cl)c3)cc2)cc1 |  | 0.5 | 98% | 22% | 0.02 µM | 0.01 µM | 28% | 1 | EC50 [8]: 0.02 µM
15 | Cc1ccc(S(=O)(=O)NC(=O)Cc2cccc(NC[C@@H](C)NC[C@H](O)c3cccc(Cl)c3)c2)cc1 | 0.00631 µM | > 158 | 98% | 8% |  |  | 16% | > 794 | EC50 [10]: > 5.01 µM; IC50 [20]: 5.01 µM; half-life [11]: 1.7 h; concentration at 2.5 h [22]: 10.3 ng/mL; IC50 [23]: 15.8 µM; EC50 [12]: > 1 µM; Clp [24]: 11.9 mL/min/kg; AUC [26]: 279 ng·h/mL; Vd [25]: 0.409 L/kg
16 | Cc1ccc(CNC(=O)Cc2ccc(NC[C@@H](C)NC[C@H](O)c3cccc(Cl)c3)cc2)cc1 |  | 0.02 | 126% | 12% | 0.0251 µM | 0.001 µM | 40% | 0.4 | EC50 [8]: 0.0631 µM
17 | C[C@H](CNc1ccc(CCS(=O)(=O)NC(=O)c2ccccc2)cc1)NC[C@H](O)c1cccc(Cl)c1 |  | 32 | 100% | 27% |  |  | 52% | 79 | EC50 [8]: 0.01 µM; EC50 [10]: 0.794 µM; half-life [11]: 1.2 h; EC50 [12]: 0.316 µM; Clp [24]: 8.7 mL/min/kg; AUC [26]: 383 ng·h/mL; Vd [25]: 0.478 L/kg
18 | C[C@H](CNc1ccc(CNS(C)(=O)=O)cc1)NC[C@H](O)c1cccc(Cl)c1 | 0.02 µM | 0.4 | 102% | 11% | 0.00501 µM | 0.00501 µM | 66% | 0.4 | 
